Reference: patent US12077503B2, “Substituted cyclic amides and their use as herbicides” (FMC CORPORATION, priority 2015, dated 2024)

How the values were obtained:
Assay type in all cases: in vivo
[1] = tested on: Kochia (Kochia scoparia); assay: Test A preemergence; details: for Plant response rating, Kochia: 125 g ai/ha, 0 to 100 scale where 0 is no effect and 100 is complete control
Source text: (§1) Seeds of plant species selected from barnyardgrass (Echinochloa crus-galli), Kochia (Kochia scoparia), ragweed (common ragweed, Ambrosia elatior), ryegrass, Italian (Italian ryegrass, Lolium multiflorum), crabgrass, large (Digitaria sanguinalis), giant foxtail (Setaria faberii), green foxtail (Setaria viridis), morningglory (Ipomoea spp.), pigweed (Amaranthus retroflexus), velvetleaf (Abutilon theophrasti), wheat (Triticum aestivum), and corn (Zea mays) were planted into a blend of loam soil and sand and treated preemergence with a directed soil spray using test chemicals formulated in anon-phytotoxic solvent mixture which included a surfactant.
(§2) At the same time, plants selected from these crop and weed species and also blackgrass (Alopecurus myosuroides), and Galium (catchweed bedstraw, Galium aparine) were planted in pots containing the same blend of loam soil and sand and treated with postemergence applications of test chemicals formulated in the same manner. Plants ranged in height from 2 to 10 cm and were in the one- to two-leaf stage for the postemergence treatment. Treated plants and untreated controls were maintained in a greenhouse for approximately 10 d, after which time all treated plants were compared to untreated controls and visually evaluated for injury. Plant response ratings, summarized in Table A, are based on a 0 to 100 scale where 0 is no effect and 100 is complete control. A dash (-) response means no test result.

[2] = tested on: pigweed (Amaranthus retroflexus); assay: Test A preemergence
Source text: as §1, §2

[3] = tested on: ragweed (common ragweed, Ambrosia elatior); assay: Test A preemergence
Source text: as §1, §2

[4] = tested on: giant foxtail (Setaria faberii); assay: Test A preemergence
Source text: as §1, §2

[5] = tested on: barnyardgrass (Echinochloa crus-galli); assay: Test A preemergence
Source text: as §1, §2

[6] = tested on: ryegrass, Italian (Italian ryegrass, Lolium multiflorum); assay: Test A preemergence
Source text: as §1, §2

[7] = tested on: sedge, umbrella (small-flower umbrella sedge, Cyperus difformis); assay: Test B flooded paddy test; details: Flood, 0 to 100 scale where 0 is no effect and 100 is complete control, 13 to 15 d
Experimental: (§3) Plant species in the flooded paddy test selected from rice (Oryra sativa), sedge, umbrella (small-flower umbrella sedge, Cyperus difformis), ducksalad (Heteranthera limosa), and barnyardgrass (Echinochloa crus-galli) were grown to the 2-leaf stage for testing. At time of treatment, test pots were flooded to 3 cm above the soil surface, treated by application of test compounds directly to the paddy water, and then maintained at that water depth for the duration of the test. Treated plants and controls were maintained in a greenhouse for 13 to 15 d, after which time all species were compared to controls and visually evaluated. Plant response ratings, summarized in Table B, are based on a scale of 0 to 100 where 0 is no effect and 100 is complete control. A dash (-) response means no test result.

[8] = tested on: rice (Oryra sativa); assay: Test B flooded paddy test; details: Flood, 0 to 100 scale where 0 is no effect and 100 is complete control, 13 to 15 d
Experimental: as §3

[9] = tested on: barnyardgrass (Echinochloa crus-galli); assay: Test B flooded paddy test; details: Flood, 0 to 100 scale where 0 is no effect and 100 is complete control, 13 to 15 d
Experimental: as §3

[10] = tested on: ducksalad (Heteranthera limosa); assay: Test B flooded paddy test; details: Flood, 0 to 100 scale where 0 is no effect and 100 is complete control, 13 to 15 d
Experimental: as §3

[11] = tested on: Kochia (Kochia scoparia); assay: Test A postemergence
Source text: as §1, §2

[12] = tested on: pigweed (Amaranthus retroflexus); assay: Test A postemergence
Source text: as §1, §2

[13] = tested on: blackgrass (Alopecurus myosuroides); assay: Test A postemergence
Source text: as §1, §2

[14] = tested on: ragweed (common ragweed, Ambrosia elatior); assay: Test A postemergence
Source text: as §1, §2

[15] = tested on: Galium (catchweed bedstraw, Galium aparine); assay: Test A postemergence
Source text: as §1, §2

[16] = tested on: corn (Zea mays); assay: Test A postemergence
Source text: as §1, §2

[17] = tested on: giant foxtail (Setaria faberii); assay: Test A postemergence
Source text: as §1, §2

[18] = tested on: wheat (Triticum aestivum); assay: Test A postemergence
Source text: as §1, §2

[19] = tested on: barnyardgrass (Echinochloa crus-galli); assay: Test A postemergence
Source text: as §1, §2

[20] = tested on: ryegrass, Italian (Italian ryegrass, Lolium multiflorum); assay: Test A postemergence
Source text: as §1, §2

[21] = Preemergence, 500 g ai/ha, visual injury approx. 10 d
[22] = 125 g ai/ha, Preemergence, visual injury after approximately 10 d, 0 to 100 scale where 0 is no effect and 100 is complete control
[23] = 125 g ai/ha, postemergence, visual rating after approx. 10 d, 0 to 100 scale (0 no effect, 100 complete control)
[24] = Postemergence, 500 g ai/ha, 0 to 100 scale where 0 is no effect and 100 is complete control
[25] = 125 g ai/ha, preemergence, visual rating after approx. 10 d, 0 to 100 scale where 0 is no effect and 100 is complete control
[26] = 500 g ai/ha, preemergence, 0 to 100 scale, 0 = no effect, 100 = complete control
[27] = 125 g ai/ha, postemergence, visual injury after approximately 10 d, 0 to 100 scale (0 no effect, 100 complete control)
[28] = 500 g ai/ha, postemergence, visual injury, 0 to 100 scale (0 no effect, 100 complete control), approx. 10 d

`C=CCN1CC(c2cccc(C(F)(F)F)c2)C(C(=O)Nc2ccccc2F)C1=O` (centres unmarked) [Compound 605] was tested, and the “Plant response rating, Kochia” value ([1]; Preemergence, visual injury after approximately 10 d) was 0, the “Kochia plant response rating (0 to 100 scale, 0 is no effect, 100 is complete control)” value [1, 21] was 0 and the “Plant response rating, Pigweed” value [2, 22] was 0. For the same compound, the “Pigweed plant response rating (0 to 100 scale, 0 is no effect, 100 is complete control)” value [2, 21] was 0, the “Plant response rating, Ragweed” value [3, 22] was 0 and the “Ragweed plant response rating (0 to 100 scale, 0 is no effect, 100 is complete control)” value [3, 21] was 0. The “Plant response rating, Foxtail, Giant” value [4, 22] was 90, the “Foxtail, Giant plant response rating (0 to 100 scale, 0 is no effect, 100 is complete control)” value [4, 21] was 90 and the “Plant response rating, Barnyardgrass” value [5, 22] was 30. The “Barnyardgrass plant response rating (0 to 100 scale, 0 is no effect, 100 is complete control)” value [5, 21] was 70, the “Plant response rating, Ryegrass, Italian” value [6, 22] was 0 and the “Ryegrass, Italian plant response rating (0 to 100 scale, 0 is no effect, 100 is complete control)” value [6, 21] was 20. For the same compound, the “Plant response rating, Sedge, Umbrella” value ([7]; 250 g ai/ha) was 0, the “Plant response rating, Rice” value ([8]; 250 g ai/ha) was 0 and the “Plant response rating, Barnyardgrass” value ([9]; 250 g ai/ha) was 0. The “Plant response rating, Ducksalad” value ([10]; 250 g ai/ha) was 50, the “Plant response rating, Kochia” value [11, 23] was 0 and the “Plant response rating, Kochia” value [11, 24] was 0. The “Plant response rating, Pigweed” value [12, 23] was 0, the “Plant response rating, Pigweed” value [12, 24] was 0 and the “Plant response rating, Blackgrass” value [13, 23] was 0. For the same compound, the “Plant response rating, Blackgrass” value [13, 24] was 20, the “Plant response rating, Ragweed” value [14, 23] was 0 and the “Plant response rating, Ragweed” value [14, 24] was 0. The “Plant response rating, Galium” value [15, 23] was 0, the “Plant response rating, Galium” value [15, 24] was 0 and the “Plant response rating, Corn” value [16, 23] was 0. For the same compound, the “Plant response rating, Corn” value [16, 24] was 0, the “Plant response rating, Foxtail, Giant” value [17, 23] was 20 and the “Plant response rating, Foxtail, Giant” value [17, 24] was 80. For the same compound, the “Plant response rating, Wheat” value [18, 23] was 0, the “Plant response rating, Wheat” value [18, 24] was 30 and the “Plant response rating, Barnyardgrass” value [19, 23] was 0. The “Plant response rating, Barnyardgrass” value [19, 24] was 80, the “Plant response rating, Ryegrass, Italian” value [20, 23] was 0 and the “Plant response rating, Ryegrass, Italian” value [20, 24] was 0.

For `O=C1NCC(c2ccc(I)cc2)C1C(=O)Nc1cccc(F)c1` (racemic) [Compound 703], the “Plant response rating, Kochia” value ([1]; preemergence, visual rating after approx. 10 d) was 0, the “Plant response rating, Pigweed” value [2, 25] was 0 and the “Plant response rating, Pigweed” value [2, 26] was 0. The “Plant response rating, Ragweed” value [3, 25] was 0, the “Plant response rating, Ragweed” value [3, 26] was 0 and the “Plant response rating, Foxtail, Giant” value [4, 25] was 80. For the same compound, the “Plant response rating, Foxtail, Giant” value [4, 26] was 90, the “Plant response rating, Barnyardgrass” value [5, 25] was 20 and the “Plant response rating, Barnyardgrass” value [5, 26] was 80. The “Plant response rating, Ryegrass, Italian” value [6, 25] was 0, the “Plant response rating, Ryegrass, Italian” value [6, 26] was 0 and the “Plant response rating, Sedge, Umbrella” value ([7]; 500 g ai/ha) was 0. The “Plant response rating, Rice” value ([8]; 500 g ai/ha) was 0, the “Plant response rating, Barnyardgrass” value ([9]; 500 g ai/ha) was 30 and the “Plant response rating, Ducksalad” value ([10]; 500 g ai/ha) was 98. For the same compound, the “Plant response rating, Kochia” value [11, 27] was 0, the “Plant response rating, Kochia” value [11, 28] was 0 and the “Plant response rating, Pigweed” value [12, 27] was 0. For the same compound, the “Plant response rating, Pigweed” value [12, 28] was 0, the “Plant response rating, Blackgrass” value [13, 27] was 0 and the “Plant response rating, Blackgrass” value [13, 28] was 0. For the same compound, the “Plant response rating, Ragweed” value [14, 27] was 0, the “Plant response rating, Ragweed” value [14, 28] was 0 and the “Plant response rating, Galium” value [15, 27] was 0. The “Plant response rating, Galium” value [15, 28] was 0, the “Plant response rating, Corn” value [16, 27] was 0 and the “Plant response rating, Corn” value [16, 28] was 0. The “Plant response rating, Foxtail, Giant” value [17, 27] was 50, the “Plant response rating, Foxtail, Giant” value [17, 28] was 90 and the “Plant response rating, Wheat” value [18, 27] was 0. For the same compound, the “Plant response rating, Wheat” value [18, 28] was 0, the “Plant response rating, Barnyardgrass” value [19, 27] was 60 and the “Plant response rating, Barnyardgrass” value [19, 28] was 70. For the same compound, the “Plant response rating, Ryegrass, Italian” value [20, 27] was 0 and the “Plant response rating, Ryegrass, Italian” value [20, 28] was 0.
